Measured values published in US20200345846A1, “CORROLE COMPOSITIONS” (TECHNION RESEARCH & DEVELOPMENT FOUNDATION LIMITED, priority 2017, published 2020).

Tested on: DU-145 prostate cancer cell line
Experiment: FACS analysis with annexin V-FITC kit (apoptosis)
Type: cell-based, human
Details: analysis after 4 h
Description: Cells (DU-145) were seeded in 6-well microtiter plates (5×10^4 cells/mL; 3 mL per well) 24 h before the addition of assigned compounds/albumin particles. At the time of drug treatment, stock solutions of compounds were diluted to 10-fold the desired final test concentrations with EMEM medium. Aliquots of 300 μL of these diluted solutions were added to the appropriate microtiter wells containing 2700 μL of medium, resulting in the required final drug concentrations (according to assigned concentration). The final concentration of DMSO (given that the compound required DMSO for solvation) in test culture was <1%. […] Following 24-72 h of exposure at 37° C., cells were re-suspended with trypsin into PBS pH 7.2 and pelleted at 3000 rpm for 5 min. Samples were washed under PBS×3 times. Samples were taken for measurement using a BD LSR-II Analyzer supported with BD FACSDiVa™ Software Version 6.1 for data analysis. Corrole fluorescence was measured using appropriate filters for excitation (405 nm, DAPI) and emission (Ds-RED). FIGS. 15A-F present FACS analysis of DU-145 prostate cancer cell line treated with an annexin V-FITC kit after 4 h incubation with: HSA control; FIGS. 15B-F present 5-Ga HSA NP's 2, 5, 10, 15, 20 μM respectively. […] Analysis of β-lapachone was done after 4 h since it induces apoptosis faster.

## CC1(C)CCC2=C(O1)c1ccccc1C(=O)C2=O [Corrole 0-lapachone, β-lapachone]
  shift of annexin V-FITC distribution curve: strong shift of the distribution curve towards stronger mean fluorescence
